Patent US8236808B2, “Pyrazine derivatives as ENAC blockers” (Novartis AG, priority 2008, dated 2012)
Counter-ions that a name gives are not always drawn.

The molecules below were run against T1, epithelial sodium channel (ENaC) (Homo sapiens, UniProt P37088+P51168+P51170) (assay: Short circuit current (ISC) measurements in human bronchial epithelial cells, inhibition of amiloride-sensitive ISC). Details: inhibition of the amiloride-sensitive ISC; HBECs cultured at air-liquid interface, Ussing chamber, compound added to apical chamber.
T1 construct: host or cells: primary human bronchial epithelial cells (HBECs), differentiated at the air-liquid interface
T1 sequence (P37088 1-669): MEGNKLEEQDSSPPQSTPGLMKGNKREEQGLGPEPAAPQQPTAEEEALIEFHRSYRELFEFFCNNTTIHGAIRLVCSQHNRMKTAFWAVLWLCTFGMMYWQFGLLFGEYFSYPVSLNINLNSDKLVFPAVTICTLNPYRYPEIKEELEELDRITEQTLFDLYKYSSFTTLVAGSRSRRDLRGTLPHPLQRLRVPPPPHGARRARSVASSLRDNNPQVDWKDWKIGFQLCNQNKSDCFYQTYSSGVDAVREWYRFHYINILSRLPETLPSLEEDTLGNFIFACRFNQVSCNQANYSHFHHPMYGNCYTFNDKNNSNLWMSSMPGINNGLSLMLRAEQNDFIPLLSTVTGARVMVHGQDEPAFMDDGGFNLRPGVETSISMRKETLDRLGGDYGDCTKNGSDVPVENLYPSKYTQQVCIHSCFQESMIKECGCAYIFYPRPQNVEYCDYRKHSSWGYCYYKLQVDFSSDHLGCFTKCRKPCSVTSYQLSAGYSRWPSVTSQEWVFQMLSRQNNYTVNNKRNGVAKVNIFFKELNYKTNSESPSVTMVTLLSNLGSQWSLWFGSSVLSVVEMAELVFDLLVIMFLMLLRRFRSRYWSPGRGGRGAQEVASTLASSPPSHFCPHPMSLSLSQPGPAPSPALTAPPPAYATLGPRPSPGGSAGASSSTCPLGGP
T1 sequence (P51168 1-640): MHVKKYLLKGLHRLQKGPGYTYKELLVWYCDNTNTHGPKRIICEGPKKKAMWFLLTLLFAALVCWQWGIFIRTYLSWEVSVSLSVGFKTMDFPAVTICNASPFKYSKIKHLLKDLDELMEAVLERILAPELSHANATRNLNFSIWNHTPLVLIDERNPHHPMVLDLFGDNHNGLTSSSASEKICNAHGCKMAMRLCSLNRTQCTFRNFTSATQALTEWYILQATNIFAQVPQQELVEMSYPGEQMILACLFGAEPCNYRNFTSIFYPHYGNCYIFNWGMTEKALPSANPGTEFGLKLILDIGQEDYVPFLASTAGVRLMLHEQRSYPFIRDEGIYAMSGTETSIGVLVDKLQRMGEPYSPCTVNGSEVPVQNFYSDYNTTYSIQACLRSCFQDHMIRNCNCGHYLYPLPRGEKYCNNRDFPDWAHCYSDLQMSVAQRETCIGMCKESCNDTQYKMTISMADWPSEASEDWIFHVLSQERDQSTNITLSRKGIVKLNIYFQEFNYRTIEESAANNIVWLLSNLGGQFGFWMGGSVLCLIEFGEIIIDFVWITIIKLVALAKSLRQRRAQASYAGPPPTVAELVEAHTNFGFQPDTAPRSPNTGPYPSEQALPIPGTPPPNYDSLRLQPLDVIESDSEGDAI
T1 sequence (P51170 1-649): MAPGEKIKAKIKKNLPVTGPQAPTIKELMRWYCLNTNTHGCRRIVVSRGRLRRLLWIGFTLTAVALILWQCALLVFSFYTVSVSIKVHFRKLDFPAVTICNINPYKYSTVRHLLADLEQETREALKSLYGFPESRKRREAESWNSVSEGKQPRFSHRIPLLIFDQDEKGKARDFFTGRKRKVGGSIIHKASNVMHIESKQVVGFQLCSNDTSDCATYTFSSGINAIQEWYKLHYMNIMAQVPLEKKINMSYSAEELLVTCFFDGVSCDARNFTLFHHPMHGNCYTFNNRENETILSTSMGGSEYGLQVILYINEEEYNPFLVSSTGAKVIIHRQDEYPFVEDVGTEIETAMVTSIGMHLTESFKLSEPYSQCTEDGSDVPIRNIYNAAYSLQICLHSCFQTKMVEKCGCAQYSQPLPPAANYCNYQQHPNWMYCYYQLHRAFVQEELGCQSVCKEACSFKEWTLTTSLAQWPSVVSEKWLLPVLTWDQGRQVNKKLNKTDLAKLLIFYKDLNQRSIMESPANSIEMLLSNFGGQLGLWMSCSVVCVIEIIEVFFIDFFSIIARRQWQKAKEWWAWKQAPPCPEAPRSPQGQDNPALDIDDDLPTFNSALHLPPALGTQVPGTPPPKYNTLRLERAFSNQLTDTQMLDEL
Type: cell-based
Procedure: Compounds of formula (I), hereinafter referred to alternatively as “agents of the invention”, are useful as pharmaceuticals. In particular, the compounds have good ENaC blocker activity and may be tested in the following assays.
Human Bronchial Epithelial cells (HBECs) (Cambrex) were cultured under air-liquid interface conditions to provide a well differentiated mucociliary phenotype.
HBECs were cultured using a modification of the method described by Gray and colleagues (Gray et al., 1996). Cells were seeded in plastic T-162 flasks and were grown in bronchial epithelial cell growth medium (BEGM; Cambrex) supplemented with bovine pituitary extract (52 μg/mL), hydrocortisone (0.5 μg/mL), human recombinant epidermal growth factor (0.5 ng/mL), epinephrine (0.5 μg/mL), transferrin (10 μg/mL), insulin (5 μg/mL), retinoic acid (0.1 μg/mL), triiodothyronine ([…]), gentamycin (50 μg/mL) and amphotericin B (50 ng/mL). Medium was changed every 48 hours until cells were 90% confluent. Cells were then passaged and seeded (8.25×10^5 cells/insert) on polycarbonate Snapwell inserts (Costar) in differentiation media containing 50% DMEM in BEGM with the same supplements as above but without triiodothyronine and a final retinoic acid concentration of 50 nM (all-trans retinoic acid). Cells were maintained submerged for the first 7 days in culture, after which time they were exposed to an apical air interface for the remainder of the culture period. At this time, media was changed to DMEM:F12 media containing 2% v/v Ultroser G for the remainder of culture. Amphotericin B was removed from all media 3 feeds prior to use in the Ussing Chambers. Cells were used between days 7 and 21 after establishment of the apical-air interface. At all stages of culture, cells were maintained at 37° C. in 5% CO2 in an air incubator.
Snapwell inserts were mounted in Vertical Diffusion Chambers (Costar) and were bathed with continuously gassed Ringer solution (5% CO2 in O2; pH 7.4) maintained at 37° C. containing (in mM): 120 NaCl, 25 NaHCO3, 3.3 KH2PO4, 0.8 K2HPO4, 1.2 CaCl2, 1.2 MgCl2, and 10 glucose. The solution osmolarity was between 280 and 300 mOsmol/kg H2O for all physiological salt solutions used. Cells were voltage clamped to 0 mV (model EVC4000; WPI). RT was measured by applying a 1- or 2-mV pulse at 30-s intervals and calculating RT by Ohm's law. Data were recorded using a PowerLab workstation (ADInstruments).
Test compounds were prepared as a 10 mM stock solution in DMSO (95%). Serial 3-fold dilutions were freshly prepared in an appropriate vehicle (distilled H2O or Ringers solution). The initial concentration was added to the apical chamber as a 1000× concentrate in 5 μL, resulting in a final 1× concentration the 5 mL volume of the Ussing chamber. Subsequent additions of compound were added in a 3.3 μL volume of the 1000× serially diluted stock solution. At the completion of the concentration-response experiment, amiloride (10 μM) was added into the apical chamber to enable the total amiloride-sensitive current to be measured. An amiloride control IC50 was established at the start of each experiment.
Results are expressed as the mean % inhibition of the amiloride-sensitive ISC. Concentration-response curves were plotted and IC50 values generated using GraphPad Prism 3.02. Cell inserts were typically run in duplicate and the IC50 calculated on the mean % inhibition data.

In order of falling IC50:
1. C[N+](C)(CCCc1ccc(OCC(=O)O)cc1)CCNC(=O)c1nc(Cl)c(N)nc1N [Example 133, [3-(4-Carboxymethoxy-phenyl)-propyl]-{2-[(3,5-diamino-6-chloro-pyrazine-2-carbonyl)-amino]-ethyl}-dimethyl-ammonium trifluoroacetate]  6.52 µM
2. C[N+](C)(CCCc1ccc(OCC(O)CO)cc1)CCNC(=O)c1nc(Cl)c(N)nc1N (centres unmarked) [Example 126, {2-[(3,5-Diamino-6-chloro-pyrazine-2-carbonyl)-amino]-ethyl}-{3-[4-(2,3-dihydroxy-propoxy)-phenyl]-propyl-dimethyl-ammonium trifluoroacetate]  2.27 µM
3. COC(=O)COc1ccc(CCC[N+](C)(C)CCNC(=O)c2nc(Cl)c(N)nc2N)cc1 [Example 132, {2-[(3,5-Diamino-6-chloro-pyrazine-2-carbonyl)-amino]-ethyl}-[3-(4-methoxycarbonylmethoxy-phenyl)-propyl]-dimethyl-ammonium trifluoroacetate]  1.49 µM
4. C[N+](C)(CCNC(=O)c1nc(Cl)c(N)nc1N)CCc1ccccc1 [Example 129, {2-[(3,5-Diamino-6-chloro-pyrazine-2-carbonyl)-amino]-ethyl}-dimethyl-phenethyl-ammonium trifluoroacetate]  1.14 µM
5. C[N+]1(CCNC(=O)c2nc(Cl)c(N)nc2N)CCC(Cc2ccccc2)CC1 (centres unmarked) [Example 16, 4-Benzyl-1-{2-[(3,5-diamino-6-chloro-pyrazine-2-carbonyl)-amino]-ethyl}-1-methyl-piperidinium iodide]  0.64 µM
6. C[N+](C)(CCNC(=O)CCc1ccc(Cl)cc1)CCNC(=O)c1nc(Cl)c(N)nc1N [Example 33, {2-[3-(4-Chloro-phenyl)-propionylamino]-ethyl}-{2-[(3,5-diamino-6-chloro-pyrazine-2-carbonyl)-amino]-ethyl}-dimethyl-ammonium hexafluorophosphate]  0.15 µM
7. C[N+](CCCc1ccc(O)cc1)(CCCc1ccc(O)cc1)CCNC(=O)c1nc(Cl)c(N)nc1N [Example 122, {2-[(3,5-Diamino-6-chloro-pyrazine-2-carbonyl)-amino]-ethyl}-bis-[3-(4-hydroxy-phenyl)-propyl]-methyl-ammonium trifluoroacetate]  0.13 µM
8. C[N+](C)(CCCCCNC(=O)Cc1ccc(OCc2ccccc2)cc1)CCNC(=O)c1nc(Cl)c(N)nc1N [Example 78, {5-[2-(4-Benzyloxy-phenyl)-acetylamino]-pentyl}-{2-[(3,5-diamino-6-chloro-pyrazine-2-carbonyl)-amino]-ethyl}-dimethyl-ammonium bromide]  0.062 µM
9. C[N+](C)(C)[C@@H](CCCCNC(=O)CCc1ccc(OCc2ccccc2)cc1)CNC(=O)c1nc(Cl)c(N)nc1N [Example 14, ((S)-5-[3-(4-Benzyloxy-phenyl)-propionylamino]-1-{[(3,5-diamino-6-chloro-pyrazine-2-carbonyl)-amino]-methyl}-pentyl)-trimethyl-ammonium iodide]  0.046 µM
10. COc1ccc(CCC[N+](CCCc2ccc(OC)cc2)(CCCc2ccc(OC)cc2)CCNC(=O)c2nc(Cl)c(N)nc2N)cc1 [Example 18, {2-[(3,5-Diamino-6-chloro-pyrazine-2-carbonyl)-amino]-ethyl}-tris-[3-(4-methoxy-phenyl)-propyl]-ammonium trifluoroacetate]  0.037 µM
11. COc1ccc(CCC[N+](CCCc2ccc(OC)cc2)(CCNC(=O)c2nc(Cl)c(N)nc2N)Cc2ccccc2)cc1 [Example 23, Benzyl-{2-[(3,5-diamino-6-chloro-pyrazine-2-carbonyl)-amino]-ethyl}-bis-[3-(4-methoxy-phenyl)-propyl]-ammonium trifluoroacetate]  0.034 µM
12. CCC[C@@H](CNC(=O)c1nc(Cl)c(N)nc1N)[N+](C)(C)CCCc1ccc(OC[C@@H](O)CO)cc1 [Example 124, ((S)-1-{[(3,5-Diamino-6-chloro-pyrazine-2-carbonyl)-amino]-methyl}-butyl)-{3-[4-((S)-2,3-dihydroxy-propoxy)-phenyl]-propyl}-dimethyl-ammonium trifluoroacetate]  0.025 µM
13. CCOc1ccc(NC(=O)NCCCC[N+](C)(CCCc2ccc(OC)cc2)CCNC(=O)c2nc(Cl)c(N)nc2N)cc1Cl (centres unmarked) [Example 26, {4-[3-(3-Chloro-4-ethoxy-phenyl)-ureido]-butyl}-{2-[(3,5-diamino-6-chloro-pyrazine-2-carbonyl)-amino]-ethyl}-[3-(4-methoxy-phenyl)-propyl]-methyl-ammonium bromide]  0.012 µM
14. COc1ccc(CCC[N+](C)(CCCc2ccc(OC)cc2)CCNC(=O)c2nc(Cl)c(N)nc2N)cc1 [Example 20, {2-[(3,5-diamino-6-chloro-pyrazine-2-carbonyl)-amino]-ethyl}-bis-[3-(4-methoxy-phenyl)-propyl]-methyl-ammonium trifluoroacetate]  0.002 µM
